Source: patent US20240285555A1, “COMPOSITIONS FOR THE TREATMENT OF COPPER DEFICIENCY AND METHODS OF USE” (priority 2018, published 2024)

Tests used:
[1] = system: Ctr1^−/− zebrafish embryos; test: Pigmentation defect in embryos from Ctr1 heterozygous zebrafish crosses; assay type: in vivo
Method: (§1) Zebrafish Experiments. […] Morpholino-based experiments were performed.
ES Supplementation Rescues Copper Deficiency Phenotypes in Zebrafish Models. To determine whether ES can rescue phenotypes associated with copper deficiency in an intact developing vertebrate animal model, zebrafish embryos with a null mutation in the gene encoding the plasma membrane copper importer Ctr1 were utilized. Zebrafish were chosen because of the ability to quickly monitor the pigmentation defect that arises due to the copper requirement of tyrosinase, an enzyme that catalyzes the critical step in melanin biosynthesis. Wild type zebrafish embryos have a characteristic melanin pigmentation pattern visible at 48 hpf. […] […] To determine whether ES can rescue the observed CcO assembly defect, clutches of embryos were grown from heterozygous Ctr1 crosses in the presence of ES until 10 dpf and levels of Cox1 in their mitochondrial extracts were measured.

Ctr1^−/− zebrafish = test: Cox1 levels in mitochondrial extracts of Ctr1 mutant zebrafish; assay type: in vivo; settings: grown in the presence of ES until 10 dpf
Method: as §1
ES Supplementation Rescues Copper Deficiency Phenotypes in Zebrafish Models. To determine whether ES can rescue phenotypes associated with copper deficiency in an intact developing vertebrate animal model, zebrafish embryos with a null mutation in the gene encoding the plasma membrane copper importer Ctr1 were utilized. Zebrafish were chosen because of the ability to quickly monitor the pigmentation defect that arises due to the copper requirement of tyrosinase, an enzyme that catalyzes the critical step in melanin biosynthesis. Wild type zebrafish embryos have a characteristic melanin pigmentation pattern visible at 48 hpf. To determine if ES can rescue copper deficiency phenotypes in zebrafish, zebrafish embryos from heterozygous Ctr1 crosses in 10 nM ES were incubated and compared to untreated embryos. […] To determine whether ES can rescue the observed CcO assembly defect, clutches of embryos were grown from heterozygous Ctr1 crosses in the presence of ES until 10 dpf and levels of Cox1 in their mitochondrial extracts were measured.

[2] = system: Ctr1^−/− H9c2 cardiomyocytes; test: COX1 and SOD1 levels in Ctr1 knockout H9c2 cardiomyocytes (Western blot); assay type: cell-based, rat; settings: 5 nM ES
Method: FIGS. 4A and 4B illustrates the effects of ES supplementation in increasing copper levels (A) and cytochrome c oxidase subunit, COX1, and superoxide dismutase, SOD1 levels (B) in Ctrl1^−/− H9c2 rat cardiomyocytes. ATP5A is a subunit of mitochondrial ATP synthase and was used as a loading control for the Western blotting experiment.
Mammalian Cell Culture. The human control MCH46 and SCO2 patient fibroblasts as well as the rat H9c2 control and Ctr1^−/− cardiomyocytes were cultured in high glucose Dulbecco's modified Eagle's medium (DMEM) supplemented with 10% fetal bovine serum (Sigma) and 1 mM sodium pyruvate (Life Technologies). The mouse embryonic fibroblasts were cultured in DMEM 10% FBS, 1 mM sodium pyruvate, 1× minimum essential medium non-essential amino acids (MEM NEAA; Life Technologies 11140), 50 μg/mL uridine, and 1× Pen Strep Glutamine (Life Technologies 10378). All cell lines were cultured under 5% CO2 at 37° C. and were treated with indicated concentrations of ES for 3-6 days before harvesting. Whole cell protein was extracted in lysis buffer (BP-115, Boston BioProducts) supplemented with protease inhibitor cocktail (Roche Diagnostics) and the protein concentrations were determined by BCA assay (Thermo Scientific).
Construction of a Ctr1 Knockout Rat H9c2 Cell Line. […]

Structure (SMILES): CN(NC(=O)CC(=O)NN(C)C(=S)c1ccccc1)C(=S)c1ccccc1 [ES, elesclomol]
- melanin pigmentation at 48 hpf ([1]; 10 nM ES from 3 hpf): all of the ES treated embryos from the same crosses were pigmented
- rescue of the pigmentation defect ([1]; 100 nM ES or the equivalent dose of copper): rescue of the pigmentation defect
- Cox1 levels in mitochondrial extracts (Ctr1^−/− zebrafish): almost completely rescued
- levels of COX1 and SOD1 [2]: restores
